The text below walks through data of patent publication US20040037804A1, “Methods for treatment of asthma” (priority 2002, published 2004).

The subject of this test is airway smooth muscle (ASM) tissues. Description: Isometric constrictor responsiveness to acetylcholine in isolated rabbit tracheal ASM rings (organ bath). In kind it is cell-based. To be noted: control (not cytokine-exposed) ASM, DEX 1 μM, 24 hours.

Method: Following general anesthesia with xylazine (10 mg/kg) and ketamine 50 mg/kg), NZW rabbits were sacrificed by air embolism and the tracheae were removed, cleaned of loose connective tissue and epithelium, and divided into ring segments.
Following incubation, the ASM tissue segments were placed in organ baths containing modified Krebs Ringer solution, and aerated with 5% CO2 in oxygen at 37° C. The tissues' isometric cholinergic contractility was subsequently assessed by cumulative administration of acetylcholine (ACh; 10^−10 to 10^−3 M).

Take `C[C@@H]1C[C@H]2[C@@H]3CCC4=CC(=O)C=C[C@]4(C)[C@@]3(F)[C@@H](O)C[C@]2(C)[C@@]1(O)C(=O)CO` [DEX, dexamethasone]: the “effect on constrictor responses to ACh in control ASM” value is listed as “no effect”.
